Reference: the supplement of paper PMC11208160

Experiment: recombinant UMI read abundance after kanamycin selection (control-corrected) (log10(CPM+1)); higher = more efficient recombination; extreme values may be limits of the assay; sequences stand for … in AGTGCAGAGAAAATCGGCCAGTTTTCTCTGCCTGCAGTCCGCATGCCGTGGGACCCCTTGGGTTCTAACCTGTTGCCTAGATTTATGCAGCGGACTGCCTTTCTCCCAAAGTGATAAACCGG…AGGTTGGTTTCACT; site = the 11-nt donor
In short: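 Sequencing read counts were converted to CPM, averaged over two replicates and scaled by control-derived factors. Results are given as log10(CPM+1). The reads covered the donor–target junction of recombinant UMIs from a pooled Escherichia coli screen of donor and donor-binding-loop pairs for the IS621 bridge recombinase.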
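Further: IS621 bridge recombinase in Escherichia coli cells against a fixed T5 target plasmid.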

Sequence	recombinant UMI read abundance (log10)
CGGAATCCATGGACCGGTTTTCCCGGTAATCCGTATTTGTT (site CGGAATCCTGT)	0
CGGAATCCATGGACCGGTTTTCCCGGTAATCCGTATTTGTT (site CGGAATCCTTA)	1.56
CGGAATCCATGGACCGGTTTTCCCGGTAATCCGTATTTGTT (site CGGAATCCTTG)	0
CGGAATCCATGGACCGGTTTTCCCGGTAATCCGTATTTGTT (site CGGAATGCTAA)	0.0054
CGGAATCCATGGACCGGTTTTCCCGGTAATCCGTATTTGTT (site CGGAATGCTAC)	0
CGGAATCCATGGACCGGTTTTCCCGGTAATCCGTATTTGTT (site CGGAATGCTCA)	0
CGGAATCCATGGACCGGTTTTCCCGGTAATCCGTATTTGTT (site CGGAATTCTAA)	0
CGGAATCCATGGACCGGTTTTCCCGGTAATCCGTATTTGTT (site CGGAATTCTAG)	0
CGGAATCCATGGACCGGTTTTCCCGGTAATCCGTATTTGTT (site CGGAATTCTTA)	0
CGGAATCCATGGACCGGTTTTCCCGGTAATCCGTATTTGTT (site CGGACCCCTAA)	0.00922
CGGAATCCATGGACCGGTTTTCCCGGTAATCCGTATTTGTT (site CGGACTCCTAA)	0.00741
CGGAATCCATGGACCGGTTTTCCCGGTAATCCGTATTTGTT (site CGGACTCCTAC)	0.00516
CGGAATCCATGGACCGGTTTTCCCGGTAATCCGTATTTGTT (site CGGACTCCTCA)	0.00467
CGGAATCCATGGACCGGTTTTCCCGGTAATCCGTATTTGTT (site CGGACTGCTAA)	0.0124
CGGAATCCATGGACCGGTTTTCCCGGTAATCCGTATTTGTT (site CGGAGGCCTAA)	0.012
CGGAATCCATGGACCGGTTTTCCCGGTAATCCGTATTTGTT (site CGGAGTACTAA)	0.00934

Sequence	recombinant UMI read abundance (log10)
CGGAATCCATGGACCGGTTTTCCCGGTAATCCGTATTTGTT (site CGGAGTCCTAA)	0.00217
CGGAATCCATGGACCGGTTTTCCCGGTAATCCGTATTTGTT (site CGGAGTCCTAT)	0
CGGAATCCATGGACCGGTTTTCCCGGTAATCCGTATTTGTT (site CGGAGTCCTGA)	0
CGGAATCCATGGACCGGTTTTCCCGGTAATCCGTATTTGTT (site CGGATACCTAA)	0.0155
CGGAATCCATGGACCGGTTTTCCCGGTAATCCGTATTTGTT (site CGGATTCCTAA)	0.0126
CGGAATCCATGGACCGGTTTTCCCGGTAATCCGTATTTGTT (site CGGATTCCTAG)	0
CGGAATCCATGGACCGGTTTTCCCGGTAATCCGTATTTGTT (site CGGATTCCTTA)	0
CGGAATCCATGGACCGGTTTTCCCGGTAATCCGTATTTGTT (site CGGATTTCTAA)	0
CGGAATCCATGGACCGGTTTTCCCGGTAATCCGTATTTGTT (site CGGCACCCTAA)	0.0425
CGGAATCCATGGACCGGTTTTCCCGGTAATCCGTATTTGTT (site CGGCATCCTAA)	0.0145
CGGAATCCATGGACCGGTTTTCCCGGTAATCCGTATTTGTT (site CGGCATCCTAC)	0.011
CGGAATCCATGGACCGGTTTTCCCGGTAATCCGTATTTGTT (site CGGCATCCTCA)	0.00889
CGGAATCCATGGACCGGTTTTCCCGGTAATCCGTATTTGTT (site CGGCATGCTAA)	0.0214
CGGAATCCATGGACCGGTTTTCCCGGTAATCCGTATTTGTT (site CGGCCTCCTAA)	0
CGGAATCCATGGACCGGTTTTCCCGGTAATCCGTATTTGTT (site CGGGAACCTAA)	0.00313
CGGAATCCATGGACCGGTTTTCCCGGTAATCCGTATTTGTT (site CGGGATCCTAA)	0.0888
